Data on twelve compounds can be found in PubChem BioAssay (NCI).

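Five concentrations, 48 hours, 96-well plates. TGI marks complete inhibition of growth.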

Holding throughout (experiment): DTP human tumour cell line panel, 48 h
The test system of experiment [1] is OVCAR-3 ovarian.
Experiment [2] concerns SK-MEL-28 melanoma.
Experiment [3] has as its system SK-OV-3 ovarian.
Experiment [4] relates to U251 CNS.
The subject of experiment [5] is MDA-N.
Experiment [6] has as its system UACC-62 melanoma.
The test system of experiment [7] is 786-0 renal.
Experiment [8] has as its system LOX IMVI melanoma.
Experiment [9] concerns SR leukemia.
The subject of experiment [10] is SN12C renal.
Experiment [11] relates to A549 NSCLC.
Experiment [12] deals with HL-60(TB) leukemia.

What is called TGI is the concentration giving total growth inhibition. As to `COc1cc2c(cc1OCc1ccccc1)NC(=S)[C@@H]1CCCN1C2=S`, the total growth inhibition concentration (TGI) in [1], in [2], in experiment [3], in experiment [4], in experiment [5] and in experiment [6] was over 100 µM in each case. The TGI in experiment [7], in experiment [8], in experiment [9], in experiment [10] and in experiment [11] was over 100 µM throughout.
With `O=C1/C(=C/c2ccco2)N=C(c2ccccc2)N1c1cc2cc(Sc3ccccc3)ccc2[nH]1`, the TGI is over 25 µM in [2]; 5.96 µM in experiment [12]; over 25 µM in experiment [5]; over 25 µM in [6]; over 25 µM in experiment [7]; over 25 µM in experiment [8]. Besides, the TGI in experiment [9], in experiment [10] and in [11] was over 25 µM throughout.
Take `C=CC[C@@H]1C(=O)[C@@]2(O[Si](C(C)C)(C(C)C)C(C)C)CC[C@@H]1C[C@H]2NC(=O)OCC(Cl)(Cl)Cl`: the TGI in experiment [1], in [2], in experiment [3], in [4], in experiment [5] and in experiment [6] was over 100 µM in each case. The TGI in experiment [7], in experiment [8], in experiment [9], in [10] and in experiment [11] was over 100 µM each time.
In the case of `COc1cccc(C2C3=C(COC3=O)Oc3cc4c(cc32)OCO4)c1` (configuration not stated), the TGI is 0.43 µM in experiment [1]; over 100 µM in experiment [2]; over 100 µM in experiment [4]; 0.0524 µM in experiment [12]; under 0.0202 µM in experiment [5]; over 100 µM in experiment [6]. Moreover, the TGI in experiment [7] is over 66.4 µM; in experiment [8] it was over 22.1 µM; in experiment [9], over 100 µM; in experiment [10] it was over 100 µM; in [11], over 100 µM.
Turning to `Cc1ccc(S(=O)(=O)Oc2nc3ccccc3nc2N(S(=O)(=O)c2ccc(C)cc2)S(=O)(=O)c2ccc(C)cc2)cc1`, the TGI in [1], in [2], in experiment [3], in [4], in [12] and in [5] was over 100 µM each time. In addition, the TGI in experiment [6], in [7], in experiment [8], in [10] and in experiment [11] was over 100 µM throughout.
On to `CCc1c(Cc2cc(C)cc(C)c2)n2c(nc1=O)SCC2CBr` (configuration not stated), for which the total growth inhibition concentration (TGI) in experiment [2], in [4], in [12], in experiment [5], in [6] and in experiment [7] was over 50 µM throughout. The TGI in [8], in experiment [9], in experiment [10] and in experiment [11] was over 50 µM in each case.
Consider `O=c1[nH]n(Cc2ccccn2)c2ccc([N+](=O)[O-])cc12`, for which the TGI in [1], in experiment [2], in experiment [4], in [12], in experiment [5] and in experiment [6] was over 100 µM each time. Also, the TGI in experiment [7], in experiment [8], in experiment [9], in [10] and in [11] was over 100 µM each time.
For `Cc1cc(OCC(=O)N/N=C/C(Br)=C/c2ccccc2)nc(SCC(=O)N/N=C/C(Br)=C/c2ccccc2)n1`, the TGI in experiment [1], in experiment [2], in experiment [4], in experiment [12], in experiment [5] and in experiment [6] was over 100 µM in each case. Moreover, the TGI in experiment [7], in [8], in experiment [9] and in [10] was over 100 µM throughout.
For `COC(=O)c1ccccc1/C=C1\Cc2cc(C)c(C)cc2C1=O`, the TGI is over 100 µM in [1]; over 100 µM in experiment [2]; 96.8 µM in [4]; over 100 µM in [12]; over 100 µM in [5]; over 100 µM in experiment [6]. The TGI in experiment [7], in experiment [8], in experiment [9], in experiment [10] and in experiment [11] was over 100 µM each time.
Turning to `Cc1ccc(S(=O)(=O)N2CCCC2C(=O)O[C@H]2CC[C@H]3CC=C[C@H]32)cc1` (some centres not stated), the TGI is over 100 µM in experiment [1]; 96.7 µM in [2]; over 100 µM in experiment [3]; over 100 µM in [4]; over 100 µM in [5]; over 100 µM in experiment [6]. Also, the TGI in [7] is over 31.6 µM; in experiment [8] it was over 100 µM; in [9], over 69.6 µM; in experiment [10] it was over 100 µM; in experiment [11], over 31.6 µM.
`Cc1ccc(/C=C/C(=O)c2cc(CN(C)C)c(O)c(CN(C)C)c2)cc1`: the TGI in experiment [1] was 69.5 µM; in experiment [2], 33.6 µM; in experiment [4] it was 58 µM; in experiment [12] it was 38.5 µM; in experiment [5] it was 42.5 µM; in [7] it was 73.9 µM. Further, the TGI in experiment [8] was 21.2 µM; in experiment [9], 62.7 µM; in [10], 44 µM; in experiment [11] it was 58.5 µM.
Take `C=C1CN(Cc2ccccc2)[C@@H]2CCCCC[C@H](C#N)[C@H]12`: the TGI in experiment [1], in experiment [2], in experiment [3], in experiment [4], in [5] and in experiment [6] was over 100 µM throughout. The TGI in [7], in experiment [8], in [9], in [10] and in experiment [11] was over 100 µM each time.
